Data on five compounds can be found in patent US20250032429A1, “2-FLUORODESCHLO[…] TREATMENT OF DEPRESSION, INCLUDING TREATMENT-RESISTANT DEPRESSION” (CLEARMIND MEDICINE INC., priority 2021, published 2025).

Where a name gives a salt, the structure may show the parent alone.

Assay [1] can be described thus: Dose-response of arylcyclohexamines: intensity of experience after nasal spray, Shulgin + rating. Type of assay: in vivo. As to conditions: for Ketamine effect / 2-DCK effect / 2-FDCK effect / OPCE effect: nasal spray, Shulgin + scale as 1-4; for dose-response curve (shape): administered in the same way, FIG. 1, FIG. 2; for dosage effective as lower threshold: initial experimentation, logarithmic dosing. The method, then: For safety reasons, when exploring novel psychoactives—the logarithmic scale is adopted for initial dosing to get an idea of whether or not a compound is active and if so, at what dosage ranges.
Following this initial experimentation with OPCE, 2-DCK, and 2-FDCK (Ketamine was later added to the study for reference) it was clear that dosages of 3 mg, 15 mg, and 30 mg, correspondingly, were effective as lower thresholds for further exploration. It was decided to multiply the lower threshold doses by 2, 3 & 4 to explore the effects of higher doses on the mind. Every several days a portion of one of the compounds was measured out on an Ohaus Scout balance scale and prepared for administration via nasal spray using a refillable nasal spray bottle.
The goals were to score a “+” ranking for effect and keep an open mind to look out for any other noteworthy observations. The Shulgin “+” based rating system (SHULGIN, A. T., & SHULGIN, A. (1991). Pihkal: a chemical love story. Berkeley, CA, Transform Press, page 964) for psychedelic experiences was chosen for a yearlong exploration of these various arylcylohexamines. Although the target family of molecules and the type of experience were different from the rating systems' original design, the scale's simplicity yields itself particularly well to this kind of exploration for a few reasons: • (1) The experience rendered by novel psychedelics is often ineffable.
It was therefore desirable to use the simple +, ++, +++, ++++ as 1, 2, 3, 4 to rate intensity of experience without seeking an objective measure for intensity.
When the dosages are adjusted to units that make all dose/response curves fit on the same graph then running a spline through the data points gives us curves that resemble, qualitatively, the curves appearing in FIG. 2.

Assay [2] deals with patients with major depressive disorders. As to conditions: cited from earlier work.
In another assay the test system is C57BL/6N mice. As to the kind of experiment: Mouse forced swim test (FST), two-day paradigm. Type of assay: in vivo. As to conditions: i.p. in saline 30 minutes prior to FST; day 2, final 4 minutes of 6 minute session; vs vehicle. As for the experimental part: Male 10 week C57BL/6N mice (Taconic) are acclimated to a holding facility one week prior to testing. A two-day FST paradigm is employed, in which mice are exposed to a 10 minute test in absence of drug, and are tested the following day in presence of drug in a 6 minute test. 2-FDCK is administered intraperitoneally (i.p.) in saline vehicle 30 minutes prior to FST. All animals are drug naïve and not previously exposed to behavioral testing.
Male C57BL6N/Tac mice 10 weeks of age are housed four mice per cage under a 12:12 h light/dark cycle and are allowed to acclimate for approximately one week prior to behavioral procedures. Food and water is provided ad libitum. All procedures followed the National Institutes of Health Guide for the Care and Use of Laboratory Animals.
2-FDCK is dissolved in a saline vehicle (0.9% sodium chloride). For the 2-FDCK dose response experiment, mice receive vehicle or varying doses of 2-FDCK i.p. 30 minutes prior to behavior testing.
Mice are tested in a two day forced swim test (FST) procedure. […] On day 2, mice receive i.p. injections 30 minutes prior to being placed in a cylinder for a 6 minute session and immobility time is scored during the final 4 minutes.

Assay [3] deals with N-methyl-D-aspartate (NMDA) receptor. As to conditions: S-enantiomer compared with ketamine; cited from earlier work.

Turning to `CNC1(c2ccccc2Cl)CCCCC1=O` (racemic) [Ketamine], the Ketamine effect is on record as 1 in assay [1] (dosage 28 (mg)); 1 in assay [1] (dosage 31 (mg)); 1 in assay [1] (dosage 32 (mg)); 2 in assay [1] (dosage 55 (mg)); 2 in assay [1] (dosage 58 (mg)); 2 in assay [1] (dosage 59 (mg)). Also, the Ketamine effect in assay [1] (dosage 62 (mg)) was 2; in assay [1] (dosage 89 (mg)), 3; in assay [1] (dosage 90 (mg)), 4; in assay [1] (dosage 92 (mg)), 4; in assay [1] (dosage 114 (mg)), 4; in assay [1] (dosage 120 (mg)), 4. Further, the Ketamine effect in assay [1] (dosage 122 (mg)) stood at 4. In assay [2], the “onset of antidepressant effect” value is recorded as “rapid antidepressant effect, acting within two hours”.
In the case of `CNC1(c2ccccc2)CCCCC1=O` (centres unmarked) [2-DCK], in assay [1], the “dose-response curve (shape)” value was “dose-response curves that start rising sharply at low doses”. The 2-DCK effect in assay [1] (dosage 15 (mg)) came to 1; in assay [1] (dosage 16 (mg)), 1; in assay [1] (dosage 17 (mg)) it was 1; in assay [1] (dosage 18 (mg)), 1; in assay [1] (dosage 28 (mg)), 3; in assay [1] (dosage 29 (mg)) it was 3. For the same compound, the 2-DCK effect was determined as 3 in assay [1] (dosage 31 (mg)); 3 in assay [1] (dosage 33 (mg)); 4 in assay [1] (dosage 42 (mg)); 4 in assay [1] (dosage 43 (mg)); 4 in assay [1] (dosage 44 (mg)); 4 in assay [1] (dosage 45 (mg)). In addition, the 2-DCK effect in assay [1] (dosage 46 (mg)), in assay [1] (dosage 57 (mg)), in assay [1] (dosage 58 (mg)), in assay [1] (dosage 61 (mg)) and in assay [1] (dosage 62 (mg)) was 4 in each case. Moreover, the “dosage effective as lower threshold” value in assay [1] is recorded as 15 mg.
`CNC1(c2ccccc2F)CCCCC1=O` (centres unmarked) [2-FDCK, 2-(2-fluorophenyl)-2-(methylamino)cyclohexan-1-one]: the “dose-response curve (shape)” value in assay [1] was “flatter than the dose-response curve for Ketamine”. In addition, the 2-FDCK effect in assay [1] (dosage 28 (mg)), in assay [1] (dosage 29 (mg)), in assay [1] (dosage 30 (mg)), in assay [1] (dosage 31 (mg)), in assay [1] (dosage 32 (mg)) and in assay [1] (dosage 33 (mg)) was 1 throughout. In addition, the 2-FDCK effect in assay [1] (dosage 35 (mg)) is 1; in assay [1] (dosage 55 (mg)) it was 2; in assay [1] (dosage 57 (mg)) it was 2; in assay [1] (dosage 58 (mg)), 2; in assay [1] (dosage 61 (mg)) it was 2; in assay [1] (dosage 62 (mg)) it was 2. Further, the 2-FDCK effect in assay [1] (dosage 88 (mg)) was 3; in assay [1] (dosage 90 (mg)), 3; in assay [1] (dosage 91 (mg)), 3; in assay [1] (dosage 114 (mg)) it was 4; in assay [1] (dosage 116 (mg)), 4; in assay [1] (dosage 122 (mg)) it was 4. For the same compound, in assay [1] (dosage 124 (mg)), the 2-FDCK effect came to 4. For the same compound, the “dose response curve (shape) compared to S-ketamine” value in assay [1] (in treating patients with depression, specifically TRD) is recorded as “flatter dose response curve compared to S-ketamine”. For the same compound, in assay [1], the “dosage effective as lower threshold” value is 30 mg. Besides, the immobility time entry in the assay with C57BL/6N mice was “shorter immobility times relative to mice receiving vehicle alone”.
As to `CCNC1(c2ccccc2)CCCCC1=O` (centres unmarked) [OPCE], the “dose-response curve (shape)” value in assay [1] is “dose-response curves that start rising sharply at low doses”. Besides, the OPCE effect is recorded as 1 in assay [1] (dosage 3 (mg)); 1 in assay [1] (dosage 4 (mg)); 1 in assay [1] (dosage 6 (mg)); 2 in assay [1] (dosage 9 (mg)); 4 in assay [1] (dosage 11 (mg)); 4 in assay [1] (dosage 12 (mg)). Further, in assay [1], the “dosage effective as lower threshold” value is 3 mg.
`CN[C@]1(c2ccccc2Cl)CCCCC1=O` [S-ketamine, (S)-2-(2-chlorophenyl)-2-(methylamino)cyclohexanone hydrochloride]: the “potency or affinity for the NMDA receptor” value in assay [3] is “higher potency or affinity for the NMDA reception”.
